Results on seven compounds are retold here after paper PMC11080064, “Inositol Hexaphosphate as an Inhibitor and Potential Regulator of p47^phox Membrane Anchoring” (Biochemistry, 2024).

“Also recorded” adds a separate entry of the source.

Assay [1] addresses T1, p47phox-PX (PX domain of p47phox, residues 1-128) (Homo sapiens, UniProt P14598).
T1 construct: poly histidine tag (TEV cleavable) (cleaved yes); made in house; host or cells: E. coli BL21 (DE3)
T1 sequence (P14598 1-128): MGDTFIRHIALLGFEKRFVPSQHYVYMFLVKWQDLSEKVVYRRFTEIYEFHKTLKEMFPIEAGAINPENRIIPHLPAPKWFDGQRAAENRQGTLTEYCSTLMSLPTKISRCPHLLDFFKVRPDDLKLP
Nature of the assay: 1H-15N-HSQC NMR titration (chemical shift perturbation) of inositol phosphates. Particulars: for binding observed by NMR (CSPs): up to 64 mM; for binding observed by NMR (CSPs) / Kd: 100 μM p47phox-PX; for Kd: pH 6.0, 25 °C, read-out: Kd (binding affinity, global fit of CSPs). The format is binding. Here is the method: All NMR samples were prepared with either ^15N- or ^15N–^13C-p47^phox-PX in 50 mM Bis-Tris (pH 6.0), 100 mM NaCl, 1 mM DTT, 0.02% (v/v) sodium azide and 10% D2O as a lock solvent. Protein concentration was typically 100 μM in each sample, as confirmed by the Bradford Assay. NMR experiments were collected on a 600 MHz Bruker AVANCE III equipped with a TXI triple resonance probe at 25 °C. NMR assignments of the PX domain were transferred from a previous publication,[24] then were confirmed, and expanded by collection of 3D HNCA, HN(CA)CB, and CBCA(CO)NH experiments on a 700 MHz Bruker AVANCE III at 25 °C.[41]−[43] Standard Bruker pulse sequences were used with the HNCA collected with 64 scans and 1024 × 40 × 48 total points, the HN(CA)CB collected with 64 scans and 1024 × 40 × 64 total points, and the CBCA(CO)NH collected with 32 scans and 1024 × 40 × 96 total points. NMR data was processed with NMRPipe[44] and analyzed using NMRFAM-Sparky.[45]
For NMR titrations, inositol phosphate stocks were prepared in the same NMR buffer, the IP6 stock was pH adjusted, and added in 0.25, 0.5, 2, and 4 to 1 mol equiv to the PX domain of p47^phox. Due to the high buffering capacity of IPs, pH values were checked during titrations and corrected as needed. ^1H–^15N-HSQC spectra were collected at each titration point, using a standard Bruker pulse sequence, collected with 2048 × 100 total points and 16 or 32 scans. Chemical shift perturbations (CSPs) were calculated using weighted chemical shifts in the following formula[46]: [drawing 1] where Δ^1H and Δ^15N represent the changes in the ^1H and ^15N chemical shifts for each resonance. To calculate the binding affinity of IPs to the PX domain of p47^phox, residues with ≥0.08 CSP at the highest titration point were fit to the following formula, which accounts for ligand depletion, on GraphPad Prism 10: [drawing 2] where CSP denotes the CSP of the individual residue at each IP concentration ([L]), Dmax represents the CSP at saturation, [P] represents the concentration of p47^phox-PX, and Kd represents the dissociation constant of p47^phox-PX and IP. The formula was initially fit to each residue individually and any residue with R^2 < 0.95 was removed before fitting the data globally to determine the overall binding affinity.

For assay [2], the target named is T2, p47phox-PX (Homo sapiens, UniProt P14598).
T2 construct: poly histidine tag (TEV cleavable) (cleaved yes); made in house; host or cells: E. coli BL21 (DE3)
T2 sequence (P14598 1-128): T1 sequence (P14598 1-128)
Briefly: Fluorescence polarization competition against BODIPY-PI(3,4)P2 tracer. The format is binding. How it is done:
All fluorescence polarization (FP) experiments were performed using BODIPY-FL diC6–PI(3,4)P2 [Echelon Biosciences (Salt Lake City, UT)] as the reporting tracer. […] Each sample contained 50 nM BODIPY-PI(3,4)P2 and was plated in triplicate on a black half area 96-well microplate [Corning (Corning, NY)]. The plate was centrifuged at 500 rpm for 30 s prior to analysis on a SpectraMax M5 [Molecular Devices (San Jose, CA)]. Measurements were taken using a monochromator with fixed excitation and emission wavelengths of 485 and 525 nm, respectively, and a cutoff of 515 nm. Raw data was converted to millipolarization (mP) using the SoftMax Pro software [Molecular Devices (San Jose, CA)]. mP values were then converted to anisotropy (A) using the following formula: [drawing 3]
A 2-fold dilution series of IP was performed, ranging from 50–0.05 μM IP in the presence of 2.5 μM p47^phox-PX and 50 nM BODIPY-PI(3,4)P2. Samples were plated in triplicate on a black half area microplate, centrifuged at 500 rpm for 30 s, and incubated for 1 h prior to analysis. The data was converted to anisotropy and fit to a four-parameter, variable slope, dose–response equation on GraphPad Prism 10. The IC50 from the dose–response equation was converted to an inhibitory constant (Ki) using a IC50-to-Ki calculator, which incorporated the following formula[47]: [drawing 5] where I50 and L50 are the free concentrations of IP and BODIPY-PI(3,4)P2, respectively, at 50% inhibition, and P0 is the free concentration of p47^phox-PX in the absence of IP.
In general terms: Fluorescence polarisation rises when a labelled molecule tumbles more slowly, as on binding a larger partner.

In assay [3] the target is T3, p47phox-PX binding to PI(3,4)P2-containing liposomes (Homo sapiens, UniProt P14598).
T3 construct: poly histidine tag (TEV cleavable) (cleaved yes); made in house; host or cells: E. coli BL21 (DE3)
T3 sequence (P14598 1-128): T1 sequence (P14598 1-128)
Briefly: Dansyl-PE liposome FRET assay of membrane anchoring. Particulars: 2.5 μM p47phox-PX, 125 μM accessible lipid, 79:15:1:5 POPC:POPE:diC16-PI(3,4)P2:Dansyl-PE, pH 7.0, 1 mM MgCl2; read-out: apparent IC50 of inhibition of membrane anchoring. In kind it is biochemical. Here is the method: To ensure proper liposome formation, phosphatidylinositol stocks were protonated prior to use adapted from a previously published protocol.[28] In brief, lyophilized PI(3,4)P2 lipids were resuspended in CHCl3 and dried under nitrogen. Lipids were then further dried under a speed vacuum for 1 h followed by a resuspension into 2:1:0.01 CHCl3: MeOH: 1 M HCl. The suspension was allowed to sit at room temperature for 15 min before the drying process was repeated. Lipids were then reconstituted in 3:1 CHCl3: MeOH and dried as above. The process was repeated with CHCl3 before a final resuspension into CHCl3 at the desired concentration and storage of protonated stocks at −80 °C. […]
The FRET assay was performed based on a previously published protocol,[48] where intrinsic tryptophan fluorescence within the PX domain was utilized as the donor fluorophore and Dansyl-PE incorporated within liposomes as the acceptor fluorophore. […] Samples were mixed for 40 s after each IP6 addition and were analyzed on an OLIS 14 TB NIR/CD Spectrophotometer [Olis (Bogart, GA)] equipped with a UV/vis photon counter 230–870 nm fluorescence detector. […] Each titration point measurement was integrated over 10 s and measured in triplicate. […]

For assay [4], the target named is T2, p47phox-PX. Briefly: Fluorescence polarization direct binding of BODIPY-PI(3,4)P2 tracer. Conditions: 50 nM tracer, 10-0.02 μM protein, pH 7.0, 1 mM MgCl2. Here is the method:
All fluorescence polarization (FP) experiments were performed using BODIPY-FL diC6–PI(3,4)P2 [Echelon Biosciences (Salt Lake City, UT)] as the reporting tracer. To determine the binding affinity of the fluorophore to p47^phox-PX, a series of 2-fold dilutions, ranging from 10–0.02 μM protein, were performed in 50 mM Bis-Tris (pH 7.0), 100 mM NaCl, 1 mM MgCl2, and 1 mM DTT. Each sample contained 50 nM BODIPY-PI(3,4)P2 and was plated in triplicate on a black half area 96-well microplate [Corning (Corning, NY)]. The plate was centrifuged at 500 rpm for 30 s prior to analysis on a SpectraMax M5 [Molecular Devices (San Jose, CA)]. Measurements were taken using a monochromator with fixed excitation and emission wavelengths of 485 and 525 nm, respectively, and a cutoff of 515 nm. Raw data was converted to millipolarization (mP) using the SoftMax Pro software [Molecular Devices (San Jose, CA)]. mP values were then converted to anisotropy (A) using the following formula: [drawing 3] […]

As to `O[C@H]1[C@H](O)[C@@H](O)[C@H](O)[C@@H](O)[C@H]1O` [Inositol], the “binding observed by NMR (CSPs)” value in assay [1] is recorded as “no significant CSPs were observed”; in assay [1] (listed as inositol), “no significant binding”.

As to `O=P(O)(O)O[C@H]1[C@H](O)[C@@H](OP(=O)(O)O)[C@H](OP(=O)(O)O)[C@@H](OP(=O)(O)O)[C@H]1O` [IP4, inositol (1,3,4,5) tetrakisphosphate], in assay [1] (NMR titration), the Kd was determined as 100 ± 11 µM.

As for `O=P(O)(O)O[C@H]1[C@H](OP(=O)(O)O)[C@@H](OP(=O)(O)O)[C@H](OP(=O)(O)O)[C@@H](OP(=O)(O)O)[C@H]1OP(=O)(O)O` [IP6, inositol hexaphosphate], in assay [1] (NMR titration, line-broadening precluded Kd fit), the “approximate affinity inferred from intermediate-exchange line-broadening” value is listed as “low-μM or lower affinity”. For the same compound, the inhibitory constant (Ki) in assay [2] (2.5 μM p47phox-PX, 50 nM BODIPY-PI(3,4)P2, pH 7.0, 1 mM MgCl2, read-out: Ki (inhibition constant, converted from IC50)) was determined as 0.6 ± 0.2 µM. Also, in assay [2] (pH 6 with 1 mM MgCl2, compared to pH 7.0), the “effect of lower pH on inhibition / Ki” value is “no significant change in Ki; also recorded: only a minor effect”. Also, the “effect of absence of MgCl2 on inhibition / Ki” value in assay [2] (pH 6 with no MgCl2) is given as “no significant change in Ki; also recorded: little to no effect”. Also, the IC50 in assay [3] came out at 1.3 ± 0.3 µM.

As to `O=P(O)(O)O[C@H]1[C@H](O)[C@@H](O)[C@H](OP(=O)(O)O)[C@@H](OP(=O)(O)O)[C@H]1O` [IP3, inositol (1,3,4) trisphosphate], in assay [1] (NMR titration), the dissociation constant Kd came out at 200 ± 50 µM.

Turning to `O=P(O)(O)OC1[C@H](O)[C@H](O)C(O)[C@H](O)[C@H]1O` (stereo partly shown) [inositol-1-phosphate], the Kd in assay [1] (NMR titration) is 870 ± 120 µM.

With `O=P(O)(O)O[C@@H]1[C@@H](OP(=O)(O)O)[C@H](OP(=O)(O)O)[C@H](O)[C@H](OP(=O)(O)O)[C@H]1OP(=O)(O)O` [IP5, inositol (1,3,4,5,6) pentakisphosphate], the equilibrium dissociation constant (Kd) in assay [1] (NMR titration) is 58 ± 6 µM. Further, the “competition with BODIPY-PI(3,4)P2 binding” value in assay [2] (up to 50 μM, 2.5 μM p47phox-PX, 50 nM tracer) was “no apparent capacity to inhibit; also recorded: no significant observed competition”.

On to “BODIPY-FL diC6–PI(3,4)P2 [BODIPY-PI(3,4)P2]”, for which binding in assay [4] was put at a Kd of 0.35 ± 0.05 µM.

The Kd is the constant that tells how readily two partners part at equilibrium. As a reminder, the Ki is the dissociation constant of the complex between target and ligand, obtained from inhibition or displacement. Broadly, the IC50 is the point on the concentration scale where inhibition reaches its midpoint.
